Experiment [1] concerns the target T1, Mannose-6-phosphate isomerase (Homo sapiens, UniProt P34949).
T1 sequence (P34949 whole entry): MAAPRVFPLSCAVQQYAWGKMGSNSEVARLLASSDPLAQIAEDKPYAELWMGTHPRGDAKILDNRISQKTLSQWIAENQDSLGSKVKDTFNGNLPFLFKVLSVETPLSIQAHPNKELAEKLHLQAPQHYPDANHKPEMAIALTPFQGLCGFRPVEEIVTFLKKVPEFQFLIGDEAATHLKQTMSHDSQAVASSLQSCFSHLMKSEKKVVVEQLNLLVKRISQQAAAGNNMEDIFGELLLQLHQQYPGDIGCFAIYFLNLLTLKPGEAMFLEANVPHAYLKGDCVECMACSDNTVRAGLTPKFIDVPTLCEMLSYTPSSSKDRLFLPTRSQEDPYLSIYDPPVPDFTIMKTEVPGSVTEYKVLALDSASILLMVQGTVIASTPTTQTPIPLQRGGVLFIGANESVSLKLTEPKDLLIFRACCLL
Briefly: PMI enzyme inhibitors, confirmation, biochemical, fluorescence intensity (AID 1535).

In experiment [2] the target is Phosphomannomutase 2 (Homo sapiens, UniProt O15305). Briefly: Counter screen SAR assay for PMM2 inhibitors via a fluorescence intensity assay. [Related pubchem assays (depositor defined):AID1545, AID1574]. A general note: The purpose of a counterscreen is to sort out artefacts and off-target activity.
Sequence of Phosphomannomutase 2 (O15305 whole entry): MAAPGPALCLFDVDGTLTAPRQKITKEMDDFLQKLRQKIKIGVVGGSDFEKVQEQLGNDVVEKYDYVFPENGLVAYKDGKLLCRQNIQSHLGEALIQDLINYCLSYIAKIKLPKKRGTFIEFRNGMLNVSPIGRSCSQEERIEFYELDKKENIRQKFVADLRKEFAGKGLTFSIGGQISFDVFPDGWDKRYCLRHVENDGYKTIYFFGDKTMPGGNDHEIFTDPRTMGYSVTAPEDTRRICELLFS
Experiment [3] concerns the target Phosphoethanolamine/phosphocholine phosphatase (Homo sapiens, UniProt Q8TCT1). Briefly: SAR assay for compounds that inhibit PHOSPHO1. [Related pubchem assays (depositor defined):AID1545, AID1565, AID1574].
Experiment [4] addresses T2, Tyrosine-protein phosphatase non-receptor type 7 (Homo sapiens, UniProt P35236).
T2 sequence (P35236 whole entry): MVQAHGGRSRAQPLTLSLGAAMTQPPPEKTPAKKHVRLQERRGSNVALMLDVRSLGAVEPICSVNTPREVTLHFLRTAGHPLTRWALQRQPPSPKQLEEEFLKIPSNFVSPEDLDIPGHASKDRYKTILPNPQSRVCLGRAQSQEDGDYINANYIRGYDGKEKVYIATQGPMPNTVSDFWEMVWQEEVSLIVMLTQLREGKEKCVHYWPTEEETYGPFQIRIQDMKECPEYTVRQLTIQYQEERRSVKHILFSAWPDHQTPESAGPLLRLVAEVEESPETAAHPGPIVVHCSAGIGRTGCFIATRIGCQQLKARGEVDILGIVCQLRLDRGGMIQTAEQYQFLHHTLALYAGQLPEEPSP
Briefly: Dose Response confirmation of compounds that inhibit HePTP. [Related pubchem assays (depositor defined):AID1059, AID1661, AID2085]. In kind it is functional.

Experiment [5] deals with Dual specificity protein phosphatase 3 (Homo sapiens, UniProt P51452). Briefly: Dose Response Confirmation of compounds that inhibit VHR1 in Fluorescent Assay. [Related pubchem assays (depositor defined):AID1661, AID1878]. Format: functional.
Sequence of Dual specificity protein phosphatase 3 (P51452 whole entry): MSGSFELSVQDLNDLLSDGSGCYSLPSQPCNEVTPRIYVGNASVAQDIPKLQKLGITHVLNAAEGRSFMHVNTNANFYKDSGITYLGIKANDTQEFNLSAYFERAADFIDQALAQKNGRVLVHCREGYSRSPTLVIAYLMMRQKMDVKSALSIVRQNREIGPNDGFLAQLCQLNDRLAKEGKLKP
In experiment [6] the target is Cytochrome P450 2C9 (Homo sapiens, UniProt P11712). Conditions: Potency.
Sequence of Cytochrome P450 2C9 (P11712 whole entry): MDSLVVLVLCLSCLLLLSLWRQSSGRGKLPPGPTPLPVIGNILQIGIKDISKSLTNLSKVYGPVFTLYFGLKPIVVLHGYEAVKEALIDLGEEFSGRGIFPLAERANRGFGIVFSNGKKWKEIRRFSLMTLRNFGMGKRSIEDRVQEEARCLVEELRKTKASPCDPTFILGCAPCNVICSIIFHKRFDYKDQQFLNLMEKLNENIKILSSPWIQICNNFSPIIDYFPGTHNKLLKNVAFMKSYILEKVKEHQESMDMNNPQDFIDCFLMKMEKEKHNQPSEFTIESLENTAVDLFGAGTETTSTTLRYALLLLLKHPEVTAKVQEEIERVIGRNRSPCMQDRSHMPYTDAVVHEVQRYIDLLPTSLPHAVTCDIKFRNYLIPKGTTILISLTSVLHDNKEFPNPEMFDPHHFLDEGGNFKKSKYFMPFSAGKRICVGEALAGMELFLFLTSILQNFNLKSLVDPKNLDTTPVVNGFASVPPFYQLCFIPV
For experiment [7], the target named is Lysosomal acid glucosylceramidase (Homo sapiens, UniProt P04062). Briefly: Dose response cell-based high throughput screening assay to identify enhancers of beta-glucosidase activity. [Related pubchem assays: 784 ]. In kind it is functional.
Sequence of Lysosomal acid glucosylceramidase (P04062 whole entry): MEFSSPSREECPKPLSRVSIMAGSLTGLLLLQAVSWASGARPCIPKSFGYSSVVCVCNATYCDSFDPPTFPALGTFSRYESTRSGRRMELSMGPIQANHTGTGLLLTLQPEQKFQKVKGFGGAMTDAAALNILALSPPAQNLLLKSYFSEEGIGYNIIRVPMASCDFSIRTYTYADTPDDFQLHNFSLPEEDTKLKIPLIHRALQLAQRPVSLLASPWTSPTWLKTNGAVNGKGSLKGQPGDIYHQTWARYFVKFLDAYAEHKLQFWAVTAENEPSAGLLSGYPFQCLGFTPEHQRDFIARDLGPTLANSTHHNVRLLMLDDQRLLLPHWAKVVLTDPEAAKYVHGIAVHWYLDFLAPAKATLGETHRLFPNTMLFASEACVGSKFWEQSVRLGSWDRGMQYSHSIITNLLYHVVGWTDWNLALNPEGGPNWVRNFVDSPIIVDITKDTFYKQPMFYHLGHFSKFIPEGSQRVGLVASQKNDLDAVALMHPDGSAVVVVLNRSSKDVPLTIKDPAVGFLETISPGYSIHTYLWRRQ
Experiment [8] has as its target Eukaryotic translation initiation factor 4H (Homo sapiens, UniProt Q15056). Briefly: eIF4H inhibition in translation initiation, SAR follow-up (AID 435011). Format: functional.
The target in experiment [9] is Polyadenylate-binding protein 1 (Homo sapiens, UniProt P11940). Briefly: PABP inhibition in translation initiation, SAR follow-up (AID 435018). In kind it is functional.
Sequence of Polyadenylate-binding protein 1 (P11940 whole entry): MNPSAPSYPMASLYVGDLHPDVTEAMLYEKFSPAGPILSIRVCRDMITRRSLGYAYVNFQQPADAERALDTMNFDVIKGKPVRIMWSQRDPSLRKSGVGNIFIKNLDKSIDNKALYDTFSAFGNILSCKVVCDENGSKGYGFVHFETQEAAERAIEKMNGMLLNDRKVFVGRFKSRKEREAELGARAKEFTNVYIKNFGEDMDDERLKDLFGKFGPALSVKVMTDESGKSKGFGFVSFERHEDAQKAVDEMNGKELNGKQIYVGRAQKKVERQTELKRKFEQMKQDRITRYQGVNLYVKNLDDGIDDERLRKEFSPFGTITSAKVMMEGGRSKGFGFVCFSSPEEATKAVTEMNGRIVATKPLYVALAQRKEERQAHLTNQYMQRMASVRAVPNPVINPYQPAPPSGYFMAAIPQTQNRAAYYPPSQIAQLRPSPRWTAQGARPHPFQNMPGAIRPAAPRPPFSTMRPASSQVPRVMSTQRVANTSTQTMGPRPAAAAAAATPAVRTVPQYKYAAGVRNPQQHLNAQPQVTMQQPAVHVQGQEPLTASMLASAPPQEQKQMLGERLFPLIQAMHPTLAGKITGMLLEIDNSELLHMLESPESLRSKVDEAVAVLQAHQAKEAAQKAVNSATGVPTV
The target of experiment [10] is Bcl-2-like protein 10 (Homo sapiens, UniProt Q9HD36). Briefly: displacers of TR3 peptide from Bcl-B, primary screen, selectivity assay for Bfl-1 inhibitor project, biochemical, fluorescence polarization, FITC-TR3 peptide (AID 748). (In general: Polarisation of emitted light reports the rotation of a fluorescent probe.);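 further: fluorescence polarization from a fluorescein-labelled TR3 peptide binding purified Bcl-B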
Sequence of Bcl-2-like protein 10 (Q9HD36 whole entry): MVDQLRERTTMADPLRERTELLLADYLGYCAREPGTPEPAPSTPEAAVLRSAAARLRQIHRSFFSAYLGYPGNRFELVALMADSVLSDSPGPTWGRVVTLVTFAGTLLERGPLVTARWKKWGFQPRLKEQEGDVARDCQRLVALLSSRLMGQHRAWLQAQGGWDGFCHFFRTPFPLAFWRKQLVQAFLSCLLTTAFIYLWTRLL
Experiment [11] deals with Neuropeptides B/W receptor type 1 (Homo sapiens, UniProt P48145). Briefly: Fluorescence-based dose response cell-based high throughput screening assay to identify antagonists of the G-protein coupled receptor 7 (GPR7). [Related pubchem assays: 1952 (Screening assay (GPR7 antagonists).), 1880 (Summary AID.)]. In kind it is functional.
Sequence of Neuropeptides B/W receptor type 1 (P48145 whole entry): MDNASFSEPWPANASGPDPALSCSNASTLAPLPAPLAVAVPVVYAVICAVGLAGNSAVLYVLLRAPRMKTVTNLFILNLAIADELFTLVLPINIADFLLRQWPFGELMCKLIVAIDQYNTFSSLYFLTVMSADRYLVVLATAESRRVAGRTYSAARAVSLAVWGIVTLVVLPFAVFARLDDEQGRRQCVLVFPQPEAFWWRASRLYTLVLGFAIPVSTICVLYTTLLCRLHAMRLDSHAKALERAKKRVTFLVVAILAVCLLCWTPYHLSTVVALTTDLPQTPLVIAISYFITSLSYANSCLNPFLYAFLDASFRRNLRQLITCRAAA
Experiment [12] concerns the target Melanin-concentrating hormone receptor 1 (Homo sapiens, UniProt Q99705). Briefly: Fluorescence-based counterscreen for antagonists of the G-protein coupled receptor 7 (GPR7): cell-based high throughput dose response assay to identify antagonists of the melanin-concentrating hormone receptor 1 (MCHR1). In kind it is functional.
In experiment [13] the target is T3, Alkaline phosphatase, tissue-nonspecific isozyme (Homo sapiens, UniProt P05186).
T3 sequence (P05186 whole entry): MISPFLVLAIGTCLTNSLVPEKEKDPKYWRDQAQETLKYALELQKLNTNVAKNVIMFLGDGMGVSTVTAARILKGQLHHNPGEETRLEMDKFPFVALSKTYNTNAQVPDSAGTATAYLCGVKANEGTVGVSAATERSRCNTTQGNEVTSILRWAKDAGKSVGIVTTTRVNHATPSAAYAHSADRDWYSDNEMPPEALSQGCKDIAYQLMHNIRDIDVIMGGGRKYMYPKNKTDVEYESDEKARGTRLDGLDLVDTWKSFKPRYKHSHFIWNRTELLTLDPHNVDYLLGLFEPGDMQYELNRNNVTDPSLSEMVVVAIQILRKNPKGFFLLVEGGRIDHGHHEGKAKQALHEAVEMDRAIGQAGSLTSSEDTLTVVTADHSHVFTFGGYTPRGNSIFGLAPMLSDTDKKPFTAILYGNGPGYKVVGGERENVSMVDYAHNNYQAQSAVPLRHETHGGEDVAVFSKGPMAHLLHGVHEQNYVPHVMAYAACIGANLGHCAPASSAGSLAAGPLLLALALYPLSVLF

Experiment [14] has as its target G2/mitotic-specific cyclin-B1 (Homo sapiens, UniProt P14635). Briefly: Counterscreen assay for inhibitors of Wee1 degradation: dose response cell-based assay to identify inhibitors of cyclin B degradation. [Related pubchem assays: 1410, 1321 ]. In kind it is functional.
Experiment [15] addresses Wee1-like protein kinase (Homo sapiens, UniProt P30291). Briefly: Dose Response Cell-based Assay for Inhibitors of Wee1 Degradation. [Related pubchem assays: 1410, 1321 ]. In kind it is functional.

Structures are written as SMILES. Active and inactive are the calls of the source.

Sequence of Wee1-like protein kinase (P30291 whole entry): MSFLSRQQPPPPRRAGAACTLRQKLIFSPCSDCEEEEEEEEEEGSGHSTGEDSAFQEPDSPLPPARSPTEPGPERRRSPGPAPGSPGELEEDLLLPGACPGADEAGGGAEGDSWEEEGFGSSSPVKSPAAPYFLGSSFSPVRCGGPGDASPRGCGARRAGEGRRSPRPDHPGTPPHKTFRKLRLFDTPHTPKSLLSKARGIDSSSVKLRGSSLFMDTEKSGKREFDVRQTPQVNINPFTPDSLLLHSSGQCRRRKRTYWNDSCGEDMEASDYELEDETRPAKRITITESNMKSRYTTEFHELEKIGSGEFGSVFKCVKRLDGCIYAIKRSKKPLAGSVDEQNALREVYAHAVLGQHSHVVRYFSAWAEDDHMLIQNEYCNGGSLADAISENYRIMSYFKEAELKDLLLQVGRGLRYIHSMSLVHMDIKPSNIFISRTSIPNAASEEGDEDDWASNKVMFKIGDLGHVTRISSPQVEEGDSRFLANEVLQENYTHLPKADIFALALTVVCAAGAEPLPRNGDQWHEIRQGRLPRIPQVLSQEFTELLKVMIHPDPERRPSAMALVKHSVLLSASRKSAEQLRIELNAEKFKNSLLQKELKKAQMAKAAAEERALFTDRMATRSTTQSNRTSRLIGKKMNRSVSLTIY
Sequence of Phosphoethanolamine/phosphocholine phosphatase (Q8TCT1 whole entry): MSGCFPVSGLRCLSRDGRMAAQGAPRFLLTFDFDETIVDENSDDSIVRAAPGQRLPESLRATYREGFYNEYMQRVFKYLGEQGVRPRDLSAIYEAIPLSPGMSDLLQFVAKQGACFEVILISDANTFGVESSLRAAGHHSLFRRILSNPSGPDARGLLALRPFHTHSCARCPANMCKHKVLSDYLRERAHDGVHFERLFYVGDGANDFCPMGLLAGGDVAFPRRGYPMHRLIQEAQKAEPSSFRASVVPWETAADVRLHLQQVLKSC
Sequence of Melanin-concentrating hormone receptor 1 (Q99705 whole entry): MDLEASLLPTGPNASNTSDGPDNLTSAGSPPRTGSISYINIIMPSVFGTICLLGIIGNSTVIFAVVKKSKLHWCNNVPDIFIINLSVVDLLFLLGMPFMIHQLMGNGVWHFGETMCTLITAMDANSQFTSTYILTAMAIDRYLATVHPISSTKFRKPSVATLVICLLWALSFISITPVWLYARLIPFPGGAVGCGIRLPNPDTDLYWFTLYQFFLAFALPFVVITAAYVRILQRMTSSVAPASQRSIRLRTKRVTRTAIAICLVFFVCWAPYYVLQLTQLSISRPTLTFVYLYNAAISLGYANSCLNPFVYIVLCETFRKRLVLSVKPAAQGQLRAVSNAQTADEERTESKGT
Sequence of G2/mitotic-specific cyclin-B1 (P14635 whole entry): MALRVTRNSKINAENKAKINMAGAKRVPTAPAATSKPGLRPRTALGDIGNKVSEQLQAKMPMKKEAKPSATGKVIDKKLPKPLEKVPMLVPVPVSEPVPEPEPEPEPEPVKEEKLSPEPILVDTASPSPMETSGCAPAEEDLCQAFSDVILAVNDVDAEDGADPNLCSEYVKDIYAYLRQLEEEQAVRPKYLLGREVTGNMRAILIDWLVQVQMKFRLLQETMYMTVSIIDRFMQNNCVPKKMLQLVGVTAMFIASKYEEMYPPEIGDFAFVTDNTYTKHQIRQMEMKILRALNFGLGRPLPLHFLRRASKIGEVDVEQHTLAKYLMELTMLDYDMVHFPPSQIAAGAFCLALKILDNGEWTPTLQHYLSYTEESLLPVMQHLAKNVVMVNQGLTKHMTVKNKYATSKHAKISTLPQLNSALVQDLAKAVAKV

On to `O=C1c2ccccc2C(=O)c2c1ccc1c(=O)n(-c3ccc(Cl)cc3)sc21`, for which the IC50 (as a rule, the concentration needed to halve the response being measured) in experiment [1] is > 50 µM (inactive); in experiment [2] it was > 100 µM (inactive); in experiment [3], 0.82 µM (active). As to `Cc1ccc2nc(-c3ccncc3)cc(C(=O)Nc3ccc(OC(F)F)cc3)c2c1`, the IC50 in experiment [4] is 4.12 µM (active); in [5], 5.69 µM (active). Regarding `CC(C)C[C@@H](CC(=O)N[C@@H](CCCN)CC(=O)N[C@@H]1CCCC[C@H]1C(=O)N[C@H](CC(=O)N[C@@H](CCC(=O)O)CC(=O)O)CC(C)C)NC(=O)[C@@H]1CNCC[C@H]1N`, the AC50 (usually the midpoint of the concentration-response curve, whichever way the signal moves) in experiment [6] was 39.8 µM (inconclusive). In the case of `COc1cccc(-c2cc(C(F)(F)F)nc(NCc3ccco3)n2)c1`, the EC50 (usually the midpoint of the concentration-response curve) in [7] is reported as > 50 µM (not active).

`COCc1ccc(C(=O)OCC(=O)Nc2ccc([N+](=O)[O-])cc2OC)cc1`: the IC50 in experiment [8] and in [9] was > 100 µM (inactive) each time. For the compound `c1cc2c3c(cccc3c1)NC1(CCCCC1)N2`, the IC50 in experiment [10] is 60.5 µM (inactive). For `O=C(NCc1cccnc1)c1cc(-c2ccc(Cl)cc2)oc1C(F)(F)F`, the half-maximal inhibitory concentration (IC50) in experiment [11] is listed as > 14.6 µM (not active); in [12], 11.9 µM (not active). Turning to `CCC(C)C(NC(=O)c1ccccc1NC(=O)c1ccco1)C(=O)NC1CCCCC1` (stereo not given), in [13], the 50% effective concentration (EC50) is listed as > 100 µM (not active). Consider `O=C(/C=C/c1ccccc1)Nc1ccc(Cl)cn1`, for which the EC50 in [14] and in [15] was > 49.7 µM (not active) in each case.

For the origin of these results see ChEMBL document CHEMBL1201862, “PubChem BioAssay data set” (2004).
